Data: ChEMBL document CHEMBL1201862, “PubChem BioAssay data set” (2004)
Calls of active or inactive are those of the source. For most assays here, no stated cut-off is given here; in the data, actives have a measured EC50 and inactives only a lower limit.

What was measured:
[1] = biological target: T1, Tyrosine-protein phosphatase non-receptor type 7 (Homo sapiens, UniProt P35236); assay: inhibitors of human HePTP phosphatase, […], biochemical, absorbance, leukemia target (AID 521); type: functional
T1 sequence (P35236 whole entry): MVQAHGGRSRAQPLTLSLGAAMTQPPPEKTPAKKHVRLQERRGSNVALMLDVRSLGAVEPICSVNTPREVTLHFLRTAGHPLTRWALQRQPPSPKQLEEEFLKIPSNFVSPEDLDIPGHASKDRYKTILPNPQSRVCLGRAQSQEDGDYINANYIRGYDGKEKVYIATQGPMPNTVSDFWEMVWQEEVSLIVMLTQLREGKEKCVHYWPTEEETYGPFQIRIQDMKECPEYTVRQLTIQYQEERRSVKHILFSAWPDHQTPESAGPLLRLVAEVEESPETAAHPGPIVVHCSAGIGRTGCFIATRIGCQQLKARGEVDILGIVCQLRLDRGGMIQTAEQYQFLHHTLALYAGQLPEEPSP

[2] = biological target: X-box-binding protein 1 (Homo sapiens, UniProt P17861); type: functional, Cricetulus griseus;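 further: confirmatory dose-response counter-screen serving a CHOP assay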
[3] = biological target: Peroxisome proliferator-activated receptor gamma/Nuclear receptor coactivator 3 (Homo sapiens, UniProt P37231); type: functional;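 further: agonist potency for raising coactivator recruitment to the receptor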
[4] = biological target: Peroxisome proliferator-activated receptor gamma/Nuclear receptor coactivator 1 (Homo sapiens, UniProt P37231); type: functional;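 further: agonist potency as compounds enhance coactivator SRC-1 recruitment to PPARgamma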
[5] = biological target: Peroxisome proliferator-activated receptor gamma/Nuclear receptor coactivator 2 (Homo sapiens, UniProt P37231); type: functional;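 further: agonist potency for raising coactivator recruitment to the receptor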
[6] = biological target: Paired box protein Pax-8 (Homo sapiens, UniProt Q06710); assay: inhibitors of PAX8-driven TPO luciferase reporter, dose response, RMG-I cells, cherry-pick (AID 687027); type: functional, cell-based;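 further: luciferase reporter driven by Pax8 target thyroperoxidase promoter measured by SteadyGlo luminescence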
[7] = cytotoxicity in HEK-293T cells, dose response, cytotoxicity control for TCR NF-kB inhibitor project, luminescence, T-cell screen hits (AID 489026); type: functional, cell-based;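 further: cells exposed to compound about 14 hours before the viability readout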
[8] = tested on: BJ; assay: cytotoxicity toward BJ-TERT-LT-ST fibroblasts, dose response, cell-based, RAS-independent, luminescence (AID 1935); type: functional; details: Homo sapiens;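 further: BJ fibroblasts immortalized with TERT plus LT and ST oncogenes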
[9] = inhibitors of firefly luciferase expression or activity, dose response, H4 neuroglioma cells, luminescence (AID 1990); type: functional, cell-based
[10] = tested on: BJ; assay: cells; type: functional, cell-based; details: Homo sapiens
[11] = luciferase reporter signal reduction – luminescence, H4-C neuroglioblastoma cells, dose response (AID 2458); type: functional, cell-based;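 further: H4 neuroglioblastoma cells stably carrying a luciferase reporter gene fusion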
[12] = tested on: BJ; assay: cytotoxicity toward BJ-TERT fibroblasts, dose response, cell-based, RAS-independent, luminescence (AID 1933); type: functional; details: Homo sapiens
[13] = inhibitors of SNCA 5'UTR-driven translation, confirmation, luminescence, H4 neuroglioblastoma cells, dose confirmation (AID 2454); type: functional, cell-based;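 further: H4 neuroglioblastoma cells carrying an alpha-synuclein 5'UTR luciferase reporter; potency for inhibition of the luciferase signal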
[14] = inhibitors of SNCA 5'UTR-driven reporter translation, confirmation, H4 neuroglioma cells, luminescence (AID 1988); type: functional, cell-based
[15] = cells; type: functional, cell-based
[16] = cytotoxicity toward DRD oncogenic fibroblasts, dose response, cell-based, non-viral oncogenic, luminescence (AID 1934); type: functional; details: Homo sapiens
[17] = Luminescence Cell-Based Dose Response HTS to Identify Inhibitors of 5'UTR Stem-Loop Driven Prion Protein mRNA Translation in H4 Neuroglioblastoma Cells. [Related pubchem assays: 1827 (Project Summary), 1813 (Primary HTS)]; type: functional
[18] = tested on: BJ; assay: cytotoxicity toward Ras-transformed BJeLR fibroblasts, dose response, cell-based, alamar blue fluorescence, cherrypicked samples (AID 2631); type: functional; details: Homo sapiens;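 further: confirmatory dose-response assay in RAS-dependent BJ fibroblasts engineered with TERT, LT and ST, with cytotoxicity read by fluorescence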
[19] = tested on: Streptococcus sp. 'group A'; assay: growth inhibition of control SK(-) GAS strain, dose response, counter-screen for streptokinase expression inhibitor project, luminescence, kanamycin, BacTiterGlo, confirmation (AID 1900); type: functional, organism-based
[20] = tested on: HEK293; assay: inhibitors of LMP1-driven NF-kB reporter, dose response, cell-based, HEK293, luciferase, cherry-pick (AID 588343); type: functional; details: Homo sapiens
[21] = tested on: Streptococcus; assay: Group A Streptococcus viability loss, dose response, counter-screen for streptokinase expression inhibitor project, luminescence, BacTiterGlo (AID 1915); type: functional, organism-based;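 further: potency for reduction of bacterial viability or growth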
[22] = non-specific cell cytotoxicity, dose response, cytotoxicity control for PAX8 inhibitor project, plate reader, dry powder samples (AID 743021); type: functional, cell-based
[23] = cytotoxicity in HEK-293T cells, dose response, cytotoxicity control for BCR NF-kB inhibitor project, luminescence, B-cell screen hits (AID 489021); type: functional, cell-based;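 further: HEK-293T cells carrying an NF-kB luciferase reporter; cells exposed to compound for about 14 hours before viability readout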

Chain of Paired box protein Pax-8 (Q06710 whole entry): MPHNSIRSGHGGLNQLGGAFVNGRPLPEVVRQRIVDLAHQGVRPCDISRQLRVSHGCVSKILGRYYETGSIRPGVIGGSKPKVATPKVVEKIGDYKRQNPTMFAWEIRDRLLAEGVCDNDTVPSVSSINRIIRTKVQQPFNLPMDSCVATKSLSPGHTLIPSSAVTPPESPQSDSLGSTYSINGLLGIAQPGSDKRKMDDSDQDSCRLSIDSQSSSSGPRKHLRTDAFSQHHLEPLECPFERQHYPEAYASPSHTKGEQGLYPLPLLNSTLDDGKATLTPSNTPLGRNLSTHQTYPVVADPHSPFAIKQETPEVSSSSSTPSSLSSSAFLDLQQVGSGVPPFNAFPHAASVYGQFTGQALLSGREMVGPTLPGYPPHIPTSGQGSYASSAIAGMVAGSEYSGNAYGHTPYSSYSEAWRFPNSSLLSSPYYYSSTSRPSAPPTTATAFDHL
Chain of X-box-binding protein 1 (P17861 whole entry): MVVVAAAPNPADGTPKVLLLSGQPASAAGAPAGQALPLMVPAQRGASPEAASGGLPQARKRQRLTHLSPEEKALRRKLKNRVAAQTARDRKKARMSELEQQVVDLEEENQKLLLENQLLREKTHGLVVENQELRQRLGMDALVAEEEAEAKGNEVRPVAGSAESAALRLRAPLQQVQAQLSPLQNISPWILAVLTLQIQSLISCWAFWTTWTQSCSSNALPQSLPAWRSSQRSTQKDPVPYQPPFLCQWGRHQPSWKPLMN
Chain of Peroxisome proliferator-activated receptor gamma/Nuclear receptor coactivator 3 (P37231 whole entry): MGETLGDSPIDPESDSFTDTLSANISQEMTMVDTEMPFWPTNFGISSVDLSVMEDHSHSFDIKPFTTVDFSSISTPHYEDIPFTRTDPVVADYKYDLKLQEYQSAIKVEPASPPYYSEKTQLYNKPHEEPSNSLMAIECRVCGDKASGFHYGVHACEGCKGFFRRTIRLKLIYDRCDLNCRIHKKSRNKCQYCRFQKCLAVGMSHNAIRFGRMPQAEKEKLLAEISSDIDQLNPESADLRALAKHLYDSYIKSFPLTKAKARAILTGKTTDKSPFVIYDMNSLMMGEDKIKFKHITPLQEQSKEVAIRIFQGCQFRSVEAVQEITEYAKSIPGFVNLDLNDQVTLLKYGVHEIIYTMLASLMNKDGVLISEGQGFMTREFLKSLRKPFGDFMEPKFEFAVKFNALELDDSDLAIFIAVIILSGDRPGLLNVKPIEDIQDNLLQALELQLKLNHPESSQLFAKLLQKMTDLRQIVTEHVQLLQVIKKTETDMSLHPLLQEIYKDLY
Chain of Peroxisome proliferator-activated receptor gamma/Nuclear receptor coactivator 3 (Q9Y6Q9 whole entry, further chain): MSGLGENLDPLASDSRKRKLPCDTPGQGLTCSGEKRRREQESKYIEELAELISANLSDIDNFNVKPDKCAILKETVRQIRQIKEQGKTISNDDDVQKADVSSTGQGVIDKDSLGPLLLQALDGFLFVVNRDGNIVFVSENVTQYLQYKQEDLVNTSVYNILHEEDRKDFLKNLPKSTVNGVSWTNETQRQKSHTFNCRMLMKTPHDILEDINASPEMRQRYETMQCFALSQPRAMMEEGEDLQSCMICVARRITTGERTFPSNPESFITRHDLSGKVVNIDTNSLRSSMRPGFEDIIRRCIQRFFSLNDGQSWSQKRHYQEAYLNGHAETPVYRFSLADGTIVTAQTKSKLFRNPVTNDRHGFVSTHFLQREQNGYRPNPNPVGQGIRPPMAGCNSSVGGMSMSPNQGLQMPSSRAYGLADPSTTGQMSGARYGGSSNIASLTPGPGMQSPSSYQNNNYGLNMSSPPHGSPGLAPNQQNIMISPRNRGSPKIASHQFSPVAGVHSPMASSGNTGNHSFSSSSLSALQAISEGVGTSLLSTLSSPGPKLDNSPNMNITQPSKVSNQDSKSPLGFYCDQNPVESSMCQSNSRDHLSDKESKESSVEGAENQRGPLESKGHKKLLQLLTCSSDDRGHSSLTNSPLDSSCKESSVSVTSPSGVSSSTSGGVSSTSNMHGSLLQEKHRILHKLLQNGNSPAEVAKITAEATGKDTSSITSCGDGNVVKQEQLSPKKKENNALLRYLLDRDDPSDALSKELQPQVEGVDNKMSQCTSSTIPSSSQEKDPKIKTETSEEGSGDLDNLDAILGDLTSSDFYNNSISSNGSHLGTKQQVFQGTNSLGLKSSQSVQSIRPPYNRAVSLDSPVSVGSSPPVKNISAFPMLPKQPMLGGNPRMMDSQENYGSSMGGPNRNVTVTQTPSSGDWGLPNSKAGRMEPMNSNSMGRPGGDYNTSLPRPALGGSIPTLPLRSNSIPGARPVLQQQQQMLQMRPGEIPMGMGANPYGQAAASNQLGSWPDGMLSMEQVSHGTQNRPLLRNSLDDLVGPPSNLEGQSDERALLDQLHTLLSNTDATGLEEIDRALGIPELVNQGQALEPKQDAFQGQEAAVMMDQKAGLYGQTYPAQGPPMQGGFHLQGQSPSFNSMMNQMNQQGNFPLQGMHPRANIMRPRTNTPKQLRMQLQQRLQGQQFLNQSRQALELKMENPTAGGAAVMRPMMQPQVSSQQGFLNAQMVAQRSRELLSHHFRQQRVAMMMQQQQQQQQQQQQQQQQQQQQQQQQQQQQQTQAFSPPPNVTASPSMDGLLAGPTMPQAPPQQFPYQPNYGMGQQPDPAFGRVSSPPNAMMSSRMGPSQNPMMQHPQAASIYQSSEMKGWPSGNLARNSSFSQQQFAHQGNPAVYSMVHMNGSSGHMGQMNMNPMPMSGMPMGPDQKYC
Chain of Peroxisome proliferator-activated receptor gamma/Nuclear receptor coactivator 2 (P37231 whole entry): as the sequence (P37231 whole entry) above
Chain of Peroxisome proliferator-activated receptor gamma/Nuclear receptor coactivator 2 (Q15596 whole entry, further chain): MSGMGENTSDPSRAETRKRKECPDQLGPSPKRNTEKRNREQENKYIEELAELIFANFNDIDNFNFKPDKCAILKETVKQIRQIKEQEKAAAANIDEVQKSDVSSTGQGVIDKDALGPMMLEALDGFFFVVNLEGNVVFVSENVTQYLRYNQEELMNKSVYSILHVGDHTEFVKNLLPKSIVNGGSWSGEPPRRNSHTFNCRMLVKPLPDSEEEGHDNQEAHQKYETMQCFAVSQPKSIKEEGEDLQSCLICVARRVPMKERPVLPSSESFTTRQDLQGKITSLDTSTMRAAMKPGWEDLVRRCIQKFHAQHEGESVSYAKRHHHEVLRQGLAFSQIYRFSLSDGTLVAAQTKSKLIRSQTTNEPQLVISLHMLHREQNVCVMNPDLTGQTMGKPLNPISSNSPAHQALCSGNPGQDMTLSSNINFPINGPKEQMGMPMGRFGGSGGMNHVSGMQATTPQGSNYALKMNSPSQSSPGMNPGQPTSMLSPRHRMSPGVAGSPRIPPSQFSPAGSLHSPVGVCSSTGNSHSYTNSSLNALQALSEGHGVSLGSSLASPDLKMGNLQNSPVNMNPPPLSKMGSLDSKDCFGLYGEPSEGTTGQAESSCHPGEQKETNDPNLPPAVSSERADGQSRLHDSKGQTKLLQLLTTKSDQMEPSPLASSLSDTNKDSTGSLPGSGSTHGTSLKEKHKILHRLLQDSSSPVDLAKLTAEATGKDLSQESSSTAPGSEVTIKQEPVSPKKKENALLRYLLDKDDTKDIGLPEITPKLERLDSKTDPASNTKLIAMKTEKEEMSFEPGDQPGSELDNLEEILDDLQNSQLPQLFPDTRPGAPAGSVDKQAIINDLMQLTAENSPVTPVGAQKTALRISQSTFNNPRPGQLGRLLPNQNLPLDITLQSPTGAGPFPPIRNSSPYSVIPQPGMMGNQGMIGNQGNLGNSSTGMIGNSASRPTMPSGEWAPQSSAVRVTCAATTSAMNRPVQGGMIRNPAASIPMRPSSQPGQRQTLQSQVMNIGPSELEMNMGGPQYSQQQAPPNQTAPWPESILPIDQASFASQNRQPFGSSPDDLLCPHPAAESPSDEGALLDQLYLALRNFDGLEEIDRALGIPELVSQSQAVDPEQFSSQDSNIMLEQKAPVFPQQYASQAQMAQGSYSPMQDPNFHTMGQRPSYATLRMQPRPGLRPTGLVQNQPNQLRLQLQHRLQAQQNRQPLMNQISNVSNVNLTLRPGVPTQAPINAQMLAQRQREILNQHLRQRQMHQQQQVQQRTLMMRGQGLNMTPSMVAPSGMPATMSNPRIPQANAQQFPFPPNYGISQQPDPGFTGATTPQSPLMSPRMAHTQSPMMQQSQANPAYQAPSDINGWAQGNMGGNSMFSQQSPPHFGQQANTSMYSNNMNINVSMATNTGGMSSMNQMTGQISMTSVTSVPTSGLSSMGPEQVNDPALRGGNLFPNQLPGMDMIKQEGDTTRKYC

With `O=C(NCCCN1CCCC1=O)c1ccc(Cl)c(NS(=O)(=O)c2ccc(F)cc2)c1` as the compound, how does the IC50 [1] read?
The IC50 was > 100000 nM (not active).

For `CCCc1nc2oc(C(=O)c3ccccc3)c(N)c2c2c1COC(C)(C)C2`, which “Absolute IC50 (XBP1)” value [2] is on record?
Its value is 10000 nM.

With `C=CCSc1nsc(N)n1` as the compound, how does the IC50 [1] read?
The IC50 was > 100000 nM (not active).

Which EC50 [3] does the source give for `O=C(NCc1nnc(S)n1-c1ccc(Br)cc1)c1ccc(S(=O)(=O)N2CCOCC2)cc1` here?
The EC50 was > 79400 nM (not active).

And the EC50 [4]?
Its EC50 is > 79400 nM (not active).

And the EC50 [5]?
The EC50 was > 79400 nM (not active).

With `COc1cc(C2C3=C(Nc4ncnn42)c2ccccc2CC3)cc(OC)c1OC` (configuration not stated) as the compound, how does the AC50 [6] read?
The AC50 was 2180 nM (active).

And the IC50 [7]?
Its IC50 is > 80000 nM (inactive).

And the EC50 [8]?
The EC50 was 498 nM (inconclusive).

What about the EC50 [9] of the same compound?
Its EC50 is < 100 nM (active).

What about the EC50 [10] of the same compound?
The EC50 was 659 nM (active).

What about the EC50 [11] of the same compound?
The EC50 was 210 nM (active).

And the EC50 [12]?
The EC50 was 572 nM (active).

What about the EC50 [13] of the same compound?
Its EC50 is 348 nM (active).

What about the EC50 [14] of the same compound?
The EC50 was < 100 nM (active).

What about the EC50 [15] of the same compound?
Its EC50 is 452 nM (active).

What about the EC50 [16] of the same compound?
Its EC50 is 532 nM (active).

What about the EC50 [17] of the same compound?
The EC50 was < 100 nM (active).

Which EC50 [18] does the source give for `CN(Cc1cnc2nc(N)nc(N)c2n1)c1ccc(C(=O)N[C@@H](CCC(=O)O)C(=O)O)cc1` here?
Its EC50 is > 133000 nM (inactive).

And the EC50 [19]?
The EC50 was 621 nM (active).

What about the EC50 [8] of the same compound?
The EC50 was > 150000 nM (not active).

What about the EC50 [9] of the same compound?
The EC50 was < 100 nM (active).

What about the EC50 [10] of the same compound?
The EC50 was < 460 nM (active).

And the EC50 [11]?
The EC50 was 74 nM (active).

And the EC50 [12]?
Its EC50 is > 150000 nM (not active).

What about the EC50 [13] of the same compound?
The EC50 was 11 nM (active).

And the EC50 [14]?
The EC50 was < 100 nM (active).

What about the EC50 [15] of the same compound?
The EC50 was 78 nM (active).

And the AC50 [20]?
The AC50 was 332 nM (active).

What about the EC50 [21] of the same compound?
The EC50 was 650 nM (active).

And the EC50 [16]?
The EC50 was 244 nM (active).

With `CC1CCCC(NC(=O)COC(=O)/C=C/c2ccc3c(c2)OCO3)C1C` (configuration not stated) as the compound, how does the “Absolute IC50 (XBP1)” value [2] read?
The value was 10000 nM.

For `COc1ccc(OCc2cccc(C(=O)Nc3cc(C)on3)c2)cc1`, which AC50 [6] is on record?
The AC50 was 4140 nM (active).

What about the AC50 [22] of the same compound?
Its AC50 is 43900 nM (active).

What about the EC50 [14] of the same compound?
The EC50 was 9850 nM (inconclusive).

What about the EC50 [17] of the same compound?
The EC50 was > 60000 nM (not active).

What about the IC50 [23] of the same compound?
The IC50 was > 80000 nM (inactive).
